Test results reported in patent US20200255367A1, “Diesters for Personal Care Applications Derived from 1-Methylheptyl Alcohol” (Inolex Investment Corporation, priority 2016, published 2020).

Experiments:
Color, ASTM D-1209 = type: physicochemical
Description: Color was measured using ASTM D-1209-05(2001 reapproved), and flash point was determined using ASTM D-92-12b.

[1] = Acid value (AV), ASTM method; type: physicochemical
Description: Acid value (AV) was measured using ASTM official method number D-974-1 ? .

[2] = Moisture content by Karl-Fischer; type: physicochemical
Description: Moisture content (% HOH) was measured using an automatic volumetric Karl-Fischer device, the Aquastar AQV21 (Gibbstown, N.J., USA.)

[3] = Kinematic viscosity at 25° C., ASTM method; type: physicochemical
Description: Kinematic viscosity was tested at 25° C. using ASTM (American Society of Testing and Materials, West Conshohocken, Pa., USA) official method number D-44515a.

[4] = 60° C.; cited from earlier work

Color (Color, ASTM D-1209) [APHA]	Acid value [1] [mg KOH/g]	Moisture [2] [wt. %]	Kinematic Viscosity [3] [cSt]	SMILES	alkaline hydrolysis rate constant (kOH) [4] [M⁻¹ s⁻¹]
12	0.01	0.01	12.0	CCCCCCC(C)OC(=O)CCC(=O)OC(C)CCCCCC (stereo not shown) [bis(1-methylheptyl) butanedioate]	–
–	–	–	–	CC(C)OC(=O)c1ccccc1 [isopropyl benzoate]	0.0533
–	–	–	–	CCOC(=O)c1ccccc1 [ethyl benzoate]	0.258
17	0.05	0.01	7.2	CCCCCCC(=O)OCC(C)(C)COC(=O)CCCCCC [neopentyl glycol diheptanoate]	–
